Measurements as given in patent US8518944B2, “Compounds as casein kinase inhibitors” (Pfizer Inc., priority 2009, dated 2013).
Where a name gives a salt, the structure may show the parent alone.

How the values were obtained:
CK1δ = CK1δ (Homo sapiens, UniProt P48730); experiment: CK1δ kinase assay (Kinase-Glo luminescence); format: biochemical; conditions: ATP 10 μM, CK1δ enzyme 2 nM, peptide substrate 42 μM, 25° C., 85 minutes; values marked * are geometric mean of 5-16 determinations; read-out: CKIδ IC50 (nM), geometric mean of 2-4 determinations
Sequence of CK1δ (P48730 whole entry): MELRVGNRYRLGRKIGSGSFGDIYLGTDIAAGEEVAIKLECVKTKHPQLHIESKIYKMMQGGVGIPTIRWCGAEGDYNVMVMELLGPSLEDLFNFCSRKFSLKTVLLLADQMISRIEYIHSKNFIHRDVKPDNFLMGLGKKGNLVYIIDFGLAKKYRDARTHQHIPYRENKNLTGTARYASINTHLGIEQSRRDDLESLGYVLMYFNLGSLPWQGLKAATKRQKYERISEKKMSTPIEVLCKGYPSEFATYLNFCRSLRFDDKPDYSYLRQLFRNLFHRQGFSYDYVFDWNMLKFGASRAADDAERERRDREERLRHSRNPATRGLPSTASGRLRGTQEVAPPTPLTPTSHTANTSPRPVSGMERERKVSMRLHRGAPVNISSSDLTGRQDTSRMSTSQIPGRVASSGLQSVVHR
Procedure: The CK1δ kinase assay was performed in a standard buffer containing ATP at 10 μM, CK1δ enzyme at 2 nM, and the peptide substrate PLSRTLpSVASLPGL at 42 μM. The reaction was incubated at 25° C. for 85 minutes. Enzyme inhibition was performed in the presence of either 1 μL of CK1δ inhibitor, or 4% DMSO. Detection of luminescent output on a PerkinElmer EnVision plate reader (PerkinElmer, Waltham, Mass.) was performed as described for the Kinase-Glo Assay (Promega).

CK1ε wild type enzyme = CK1ε wild type enzyme (Homo sapiens, UniProt P49674); experiment: CK1ε kinase assay (Kinase-Glo luminescence); format: biochemical; conditions: ATP 10 μM, CK1ε wild type enzyme 2.5 nM, peptide substrate 42 μM, 25° C., 70 minutes; values marked * are geometric mean of 5-16 determinations; read-out: CKIε IC50 (nM), geometric mean of 2-4 determinations
Sequence of CK1ε wild type enzyme (P49674 whole entry): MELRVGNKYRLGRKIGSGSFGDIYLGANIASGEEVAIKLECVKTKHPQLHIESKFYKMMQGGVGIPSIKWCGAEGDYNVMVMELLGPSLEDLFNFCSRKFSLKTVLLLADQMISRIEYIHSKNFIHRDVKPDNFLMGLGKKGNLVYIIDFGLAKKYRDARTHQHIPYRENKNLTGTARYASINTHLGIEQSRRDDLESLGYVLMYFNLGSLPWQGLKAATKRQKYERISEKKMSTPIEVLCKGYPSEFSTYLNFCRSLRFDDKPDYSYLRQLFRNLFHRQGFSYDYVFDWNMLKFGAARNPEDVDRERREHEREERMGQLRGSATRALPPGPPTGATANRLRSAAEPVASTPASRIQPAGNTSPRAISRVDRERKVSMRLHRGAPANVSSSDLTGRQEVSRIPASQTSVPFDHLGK
Procedure: The CK1ε kinase assay was performed in a standard buffer containing ATP at 10 μM, CK1ε wild type enzyme at 2.5 nM, and 42 μM concentration of the peptide substrate PLSRTLpSVASLPGL (Flotow et al., 1990). The reaction was incubated at 25° C. for 70 minutes. Enzyme inhibition was measured in the presence of 1 μL of the CK1ε inhibitor, or 4% DMSO. Detection was carried out as described for the Kinase-Glo Assay (Promega). Luminescent output was measured on the PerkinElmer EnVision plate reader (PerkinElmer, Waltham, Mass.).

| SMILES | IC50 (CK1δ) | IC50 (CK1ε wild type enzyme) |
| --- | --- | --- |
| Cc1ncc(CN2CCC(n3cnc(-c4ccc(F)cc4)c3-c3ccnc(N)n3)CC2)cn1 [Example 27, 4-[4-(4-fluorophenyl)-1-{1-[(2-methylpyrimidin-5-yl)methyl]piperidin-4-yl}-1H-imidazol-5-yl]pyrimidin-2-amine, trifluoroacetate salt] | 17.6 nM | 83.2 nM |
| CNc1nccc(-c2c(-c3ccccc3)ncn2C2CCN(Cc3ncccn3)CC2)n1 [Example 12, N-Methyl-4-{4-phenyl-1-[1-(pyrimidin-2-ylmethyl)piperidin-4-yl]-1H-imidazol-5-yl}pyrimidin-2-amine] | 191 nM | 660 nM |
